Experiments:
[1] = biological target: T1, Monoamine Oxidase A, Peripheral (Rattus norvegicus, UniProt P21396); assay: NovaScreen assay; type: biochemical; conditions: read-out: Inhibition, 10 μM XL-647
T1 construct: NovaScreen

Thromboxane A2 (Human) = biological target: T2, Thromboxane A2 (Human) (Homo sapiens, UniProt P21731); assay: NovaScreen assay; type: binding; conditions: read-out: Inhibition, 10 μM XL-647
T2 construct: NovaScreen

EGFR WT (pTet-On/Lx-1) = EGFR WT (pTet-On/Lx-1) (Homo sapiens, UniProt P00533); assay: EGFR phosphorylation ELISA in transfected Lx-1 cells
Description: Lx-1 cells were used because they lack background EGFR activity. A clone corresponding to the longest EGFR isoform (Genbank accession no. NM_005228.3/NP_005219.2 #21-176, Upstate Biotechnology) was used as a template to produce two mutant EGFR genes (coding for L858R and L861Q) by site-directed mutagenesis. The WT and the two sequence-verified mutants were transferred to a COOH-terminal Flag-tagged retroviral cytomegalovirus promoter-driven mammalian expression vector. The two Tet-On expression vectors, EGFR WT (Tet-On) and EGFRvIII (Tet-On), which were COOH-terminally Flag tagged, were generously provided by Dr. Abhijit Guha (University of Toronto, Toronto, Ontario, Canada).
Transient transfections of Lx-1 cells were done using Lipofectamine 2000 (Invitrogen) according to the manufacturer's protocol. For transfections of the WT, L858R, and L861Q constructs, 1 μg plasmid DNA was used for each transfection (each well of a 12-well plate). […]
For the EGFR phosphorylation ELISA, Reacti-Bind streptavidin-coated plates (Pierce) were coated with 2 μg/mL biotin-conjugated anti-Flag antibody (Sigma). […] Horseradish peroxidase activity was determined by reading the plates in a Victor2 plate reader following addition of the ELISA Femto substrate.

[2] = biological target: T3, Glutamate, NMDA, Glycine (Stry-insens Site) (Homo sapiens, UniProt Q05586); assay: NovaScreen assay; type: binding; conditions: read-out: Inhibition, 10 μM XL-647
T3 construct: NovaScreen

c-Abl = biological target: T4, c-Abl (Homo sapiens, UniProt P00519); assay: Chemiluminescent kinase assay; type: biochemical
T4 construct: Human, P118-; mM MgCl2, 3 mM MnCl2, 1; S553, N-GST,; GST (N); purchased ProQinase
T4 sequence (P00519 118-553): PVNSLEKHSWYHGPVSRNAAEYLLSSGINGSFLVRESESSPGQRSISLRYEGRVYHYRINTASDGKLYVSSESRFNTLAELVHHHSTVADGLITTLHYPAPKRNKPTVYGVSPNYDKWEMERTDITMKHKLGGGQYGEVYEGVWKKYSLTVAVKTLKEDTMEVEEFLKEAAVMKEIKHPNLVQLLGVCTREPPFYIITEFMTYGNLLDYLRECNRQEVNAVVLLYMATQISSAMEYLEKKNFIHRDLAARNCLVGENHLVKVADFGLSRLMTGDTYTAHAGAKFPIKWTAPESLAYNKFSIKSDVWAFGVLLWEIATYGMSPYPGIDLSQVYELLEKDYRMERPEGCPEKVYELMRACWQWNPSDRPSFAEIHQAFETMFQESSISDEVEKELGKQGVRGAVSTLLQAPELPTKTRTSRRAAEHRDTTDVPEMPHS
Description: (§1) A Luciferase-coupled chemiluminescence assay was used to measure EGFR and KDR (VEGFR2) activity. Kinase activity was measured as the percentage of ATP consumed following the kinase reaction using luciferase-luciferin-coupled chemiluminescence. Reactions were conducted in 384-well white, medium-binding microtiter plates (Greiner). […] The reaction mixture was incubated at room temperature for 4 h. Following the kinase reaction, a 20 μL aliquot of Kinase Glo (Promega) was added and luminescence signal was measured using a Victor2 plate reader (Perkin-Elmer). Total ATP consumption was limited to 50%.
(§2) Further screening was performed using the biochemical assay methods of Example 2. Additional description of the components and concentrations are summarized in Table 8, Table 9, and Table 10, below.

ZAP-70 = biological target: T5, ZAP-70 (Homo sapiens, UniProt P43403); assay: Chemiluminescent kinase assay; type: biochemical
T5 construct: purchased MBL
T5 sequence (P43403 whole entry): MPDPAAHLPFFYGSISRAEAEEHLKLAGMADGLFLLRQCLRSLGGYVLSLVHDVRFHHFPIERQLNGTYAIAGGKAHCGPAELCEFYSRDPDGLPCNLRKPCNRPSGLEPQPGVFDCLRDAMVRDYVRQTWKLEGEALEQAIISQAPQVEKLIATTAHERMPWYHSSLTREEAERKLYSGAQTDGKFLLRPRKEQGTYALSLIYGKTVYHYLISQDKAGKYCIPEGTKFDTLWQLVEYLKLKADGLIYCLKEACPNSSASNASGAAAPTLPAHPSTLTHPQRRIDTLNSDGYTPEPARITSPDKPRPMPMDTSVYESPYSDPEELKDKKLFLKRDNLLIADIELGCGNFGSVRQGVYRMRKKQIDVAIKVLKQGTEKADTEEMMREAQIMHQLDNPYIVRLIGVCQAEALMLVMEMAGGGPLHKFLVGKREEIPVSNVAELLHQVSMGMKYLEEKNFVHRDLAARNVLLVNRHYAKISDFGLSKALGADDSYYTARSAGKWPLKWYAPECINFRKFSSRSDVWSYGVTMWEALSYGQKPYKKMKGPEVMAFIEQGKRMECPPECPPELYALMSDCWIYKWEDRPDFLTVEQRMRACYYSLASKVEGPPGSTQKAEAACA
Description: as §1, §2

c-Met = biological target: T6, c-Met (Homo sapiens, UniProt P08581); assay: Chemiluminescent kinase assay; type: biochemical
T6 construct: Human, P948-; MgCl2, 0.02% Triton X-100,; S1343, N-GST-; GST (N); purchased ProQinase
Description: as §1, §2

Lck = biological target: T7, Lck (Homo sapiens, UniProt P06239); assay: Chemiluminescent kinase assay; type: biochemical
T7 construct: Human, Q225-; mM MgCl2, 3 mM MnCl2, 1; P510, N-GST/C-; GST (N); EF (C)
T7 sequence (P06239 225-509 limits assumed): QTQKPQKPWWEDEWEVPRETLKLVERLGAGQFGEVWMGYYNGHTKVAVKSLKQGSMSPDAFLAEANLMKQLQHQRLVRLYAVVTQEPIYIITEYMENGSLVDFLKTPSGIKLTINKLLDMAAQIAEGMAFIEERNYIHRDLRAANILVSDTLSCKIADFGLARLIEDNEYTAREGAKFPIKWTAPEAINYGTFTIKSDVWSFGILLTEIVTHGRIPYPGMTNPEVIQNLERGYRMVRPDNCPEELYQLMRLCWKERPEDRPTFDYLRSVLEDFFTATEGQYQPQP
Description: as §1, §2

[3] = biological target: T8, GABA A, BDZ, alpha 1, Central (Homo sapiens, UniProt P14867+P18507); assay: NovaScreen assay; type: binding; conditions: read-out: Inhibition, 10 μM XL-647
T8 construct: NovaScreen
T8 sequence (P14867 28-456): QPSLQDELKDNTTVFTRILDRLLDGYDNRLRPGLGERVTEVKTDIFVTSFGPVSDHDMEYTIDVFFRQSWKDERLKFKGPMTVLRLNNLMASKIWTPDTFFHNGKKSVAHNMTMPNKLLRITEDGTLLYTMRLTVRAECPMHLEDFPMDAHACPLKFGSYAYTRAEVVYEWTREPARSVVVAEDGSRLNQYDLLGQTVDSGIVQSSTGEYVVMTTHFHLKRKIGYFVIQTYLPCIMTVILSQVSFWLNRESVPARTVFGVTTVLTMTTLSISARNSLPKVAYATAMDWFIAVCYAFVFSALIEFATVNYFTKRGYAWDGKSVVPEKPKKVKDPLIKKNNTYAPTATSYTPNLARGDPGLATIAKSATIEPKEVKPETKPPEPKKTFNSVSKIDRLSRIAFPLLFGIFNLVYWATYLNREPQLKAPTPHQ
T8 sequence (P18507 40-475): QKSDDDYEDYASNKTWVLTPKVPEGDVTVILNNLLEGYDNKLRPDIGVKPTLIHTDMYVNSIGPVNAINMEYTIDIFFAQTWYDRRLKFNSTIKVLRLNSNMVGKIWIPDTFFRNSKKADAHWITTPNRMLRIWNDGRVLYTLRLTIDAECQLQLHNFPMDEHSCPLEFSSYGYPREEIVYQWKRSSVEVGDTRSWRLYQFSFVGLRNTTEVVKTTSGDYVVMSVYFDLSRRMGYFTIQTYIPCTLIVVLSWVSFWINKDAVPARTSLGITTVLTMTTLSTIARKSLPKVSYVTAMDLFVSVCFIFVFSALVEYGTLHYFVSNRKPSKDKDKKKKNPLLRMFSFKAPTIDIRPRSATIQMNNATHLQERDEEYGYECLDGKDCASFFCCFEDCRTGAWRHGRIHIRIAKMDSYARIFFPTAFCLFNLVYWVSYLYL
T8 sequence (P47870 25-512 partner limits assumed): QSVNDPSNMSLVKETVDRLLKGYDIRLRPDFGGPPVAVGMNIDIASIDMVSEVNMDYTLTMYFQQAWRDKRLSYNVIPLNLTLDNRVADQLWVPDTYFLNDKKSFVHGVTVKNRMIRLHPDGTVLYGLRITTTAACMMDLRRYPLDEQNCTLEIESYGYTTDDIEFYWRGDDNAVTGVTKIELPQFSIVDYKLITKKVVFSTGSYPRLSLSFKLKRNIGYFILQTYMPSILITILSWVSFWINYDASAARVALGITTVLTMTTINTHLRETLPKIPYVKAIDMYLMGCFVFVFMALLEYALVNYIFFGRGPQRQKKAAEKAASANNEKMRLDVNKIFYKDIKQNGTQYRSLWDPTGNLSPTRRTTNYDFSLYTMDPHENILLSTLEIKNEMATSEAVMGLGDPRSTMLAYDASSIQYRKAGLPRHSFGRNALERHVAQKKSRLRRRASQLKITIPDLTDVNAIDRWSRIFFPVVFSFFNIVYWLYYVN

Flt-4 = Flt-4 (Homo sapiens, UniProt P35916); assay: AlphaScreen tyrosine kinase assay; type: biochemical; parameters: residues D725-R1298 of human Flt-4, Proqinase; purchased Proqinase; conditions: ATP at Km
Flt-4, sequence (P35916 725-1298 isoform P35916-1): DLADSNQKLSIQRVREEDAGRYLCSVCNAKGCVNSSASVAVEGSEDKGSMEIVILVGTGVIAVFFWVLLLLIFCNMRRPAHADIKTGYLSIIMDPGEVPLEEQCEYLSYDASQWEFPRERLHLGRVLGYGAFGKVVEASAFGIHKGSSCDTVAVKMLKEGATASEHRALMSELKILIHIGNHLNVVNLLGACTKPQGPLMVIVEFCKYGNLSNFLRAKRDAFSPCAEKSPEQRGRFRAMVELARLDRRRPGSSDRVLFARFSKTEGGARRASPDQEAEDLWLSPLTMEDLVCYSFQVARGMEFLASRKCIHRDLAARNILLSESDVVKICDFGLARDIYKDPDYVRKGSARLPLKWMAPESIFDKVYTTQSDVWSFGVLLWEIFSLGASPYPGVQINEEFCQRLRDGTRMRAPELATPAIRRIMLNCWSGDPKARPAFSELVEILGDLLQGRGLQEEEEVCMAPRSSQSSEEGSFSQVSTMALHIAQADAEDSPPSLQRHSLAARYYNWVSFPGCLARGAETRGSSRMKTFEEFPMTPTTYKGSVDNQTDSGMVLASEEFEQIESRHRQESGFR
Description: Dose-response experiments were done using 10 different inhibitor concentrations in 384-well microtiter plates. The ATP concentration used for each assay was equivalent to the Km for each kinase. IC50 values were calculated by nonlinear regression analysis using the four-variable equation: Y=min+(max−min)/[1+([I]/IC50)N], where Y is the observed signal, [I] is the inhibitor concentration, min is the background signal in the absence of enzyme (0% enzyme activity), max is the signal in the absence of inhibitor (100% enzyme activity), IC50 is the inhibitor concentration required at 50% enzyme inhibition, and N represents the empirical Hill slope as a measure of cooperativity.
An AlphaScreen tyrosine kinase assay was used to measure ErbB2 and Flt-4 activity. Donor beads coated with streptavidin and acceptor beads coated with PY100 anti-phosphotyrosine antibody (Perkin-Elmer) were used. Biotinylated poly(Glu,Tyr) 4:1 was used as the substrate. Substrate phosphorylation was measured by luminescence following donor-acceptor bead addition followed by complex formation. […] After 2 to 16 h of incubation at room temperature, plates were read using an AlphaQuest reader (Perkin-Elmer).

ErbB2 = ErbB2 (Homo sapiens, UniProt P04626); assay: AlphaScreen tyrosine kinase assay; type: biochemical; parameters: residues Q679-V1255 of human ErbB2, Proqinase; purchased Proqinase; conditions: ATP at Km
ErbB2, sequence (P04626 679-1255): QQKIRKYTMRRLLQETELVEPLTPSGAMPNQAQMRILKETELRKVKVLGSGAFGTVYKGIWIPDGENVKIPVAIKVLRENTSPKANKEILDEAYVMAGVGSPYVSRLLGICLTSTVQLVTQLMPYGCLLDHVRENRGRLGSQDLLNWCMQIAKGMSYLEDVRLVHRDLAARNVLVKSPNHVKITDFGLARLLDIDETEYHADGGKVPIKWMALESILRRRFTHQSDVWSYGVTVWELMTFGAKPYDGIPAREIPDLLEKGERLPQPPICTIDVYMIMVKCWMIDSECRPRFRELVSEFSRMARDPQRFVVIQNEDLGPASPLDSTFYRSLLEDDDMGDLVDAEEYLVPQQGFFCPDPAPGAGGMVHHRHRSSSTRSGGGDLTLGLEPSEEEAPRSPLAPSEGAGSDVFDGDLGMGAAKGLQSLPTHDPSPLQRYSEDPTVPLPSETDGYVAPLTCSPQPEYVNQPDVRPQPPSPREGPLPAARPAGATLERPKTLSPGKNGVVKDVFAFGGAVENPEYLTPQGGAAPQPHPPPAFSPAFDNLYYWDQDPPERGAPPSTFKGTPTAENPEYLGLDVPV
Description: An AlphaScreen tyrosine kinase assay was used to measure ErbB2 and Flt-4 activity. Donor beads coated with streptavidin and acceptor beads coated with PY100 anti-phosphotyrosine antibody (Perkin-Elmer) were used. Biotinylated poly(Glu,Tyr) 4:1 was used as the substrate. Substrate phosphorylation was measured by luminescence following donor-acceptor bead addition followed by complex formation. Test compound, 3 μmol/L ATP, 3 nmol/L biotinylated poly(Glu,Tyr) 4:1, and 1 nmol/L ErbB2 (residues Q679-V1255 of human ErbB2, Proqinase) or Flt-4 (residues D725-R1298 of human Flt-4, Proqinase) were combined in a volume of 20 μL Assay Buffer (20 mM TrisHCl, pH 7.5, 10 mM MgCl2, 3 mM MnCl2, 1 mM DTT, 0.01% Triton) in a 384-well white, medium-binding microtiter plate (Greiner). Reaction mixtures were incubated for 1 h at room temperature. Reactions were quenched by addition of 10 μL of 15 to 30 μg/mL AlphaScreen bead suspension containing 75 mmol/L HEPES (pH 7.4), 300 mmol/L NaCl, 120 mmol/L EDTA, 0.3% bovine serum albumin, and 0.03% Tween 20. After 2 to 16 h of incubation at room temperature, plates were read using an AlphaQuest reader (Perkin-Elmer).

[4] = tested on: HT-29 human tumor xenograft; assay: HT-29 xenograft, tumor growth; type: in vivo; conditions: Mus musculus
Description: The response of tumors to treatment was determined by comparing the mean tumor weight of the treatment group with the appropriate control group. Percentage inhibition of tumor growth was determined with the following formula: Percentage inhibition=100×[1−(Xf−Xo)/(Yf−Yo)], where Xf and Yf are the mean tumor weights of the treatment and control groups, respectively, on day f, and Xo and Yo are the mean tumor weights of treatment and control groups respectively, on day zero (staged tumor weights after grouping)

T2 sequence (P21731 whole entry): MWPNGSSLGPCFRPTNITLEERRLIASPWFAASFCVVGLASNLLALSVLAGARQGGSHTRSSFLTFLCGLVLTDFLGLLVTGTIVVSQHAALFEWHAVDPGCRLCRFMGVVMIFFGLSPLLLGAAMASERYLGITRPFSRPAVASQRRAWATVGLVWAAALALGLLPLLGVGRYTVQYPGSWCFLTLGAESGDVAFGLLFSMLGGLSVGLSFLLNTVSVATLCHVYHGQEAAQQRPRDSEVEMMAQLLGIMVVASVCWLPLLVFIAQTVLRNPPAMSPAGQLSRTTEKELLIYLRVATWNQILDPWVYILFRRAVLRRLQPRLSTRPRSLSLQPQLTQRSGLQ
T1 sequence (P21396 whole entry): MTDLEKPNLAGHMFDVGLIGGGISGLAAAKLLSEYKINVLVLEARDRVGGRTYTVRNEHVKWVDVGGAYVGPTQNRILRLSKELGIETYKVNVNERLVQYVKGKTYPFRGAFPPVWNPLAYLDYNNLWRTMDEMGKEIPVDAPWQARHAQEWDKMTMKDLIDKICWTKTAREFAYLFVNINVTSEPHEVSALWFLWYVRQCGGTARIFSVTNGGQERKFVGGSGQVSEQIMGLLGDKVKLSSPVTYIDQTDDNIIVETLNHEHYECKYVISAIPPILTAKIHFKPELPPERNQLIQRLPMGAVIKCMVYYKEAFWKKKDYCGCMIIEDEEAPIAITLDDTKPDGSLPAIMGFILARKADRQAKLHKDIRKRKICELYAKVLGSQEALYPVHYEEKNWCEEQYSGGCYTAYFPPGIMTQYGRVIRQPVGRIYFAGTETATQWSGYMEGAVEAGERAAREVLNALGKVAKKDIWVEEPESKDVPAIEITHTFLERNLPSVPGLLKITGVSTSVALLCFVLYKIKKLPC

COc1cc2c(Nc3ccc(Cl)c(Cl)c3F)ncnc2cc1OC[C@@H]1C[C@@H]2CN(C)C[C@@H]2C1 [XL-647, N-(3,4-dichloro-2-fluorophenyl)-7-({[(3aR,5r,6aS)-2-methyloctahydrocyclopenta[c]pyrrol-5-yl]methyl}oxy)-6-(methyloxy)quinazolin-4-amine]
inhibition at 10 µM [1]: 1.66%
inhibition at 10 µM (Thromboxane A2 (Human)): 1.51%
IC50 (EGFR WT (pTet-On/Lx-1)): 5 nM
inhibition at 10 µM [2]: 6.46%
IC50 (c-Abl): 337 ± 3.6 nM
IC50 (ZAP-70): 7.81 ± 0.655 µM
IC50 (c-Met): 332 ± 50.7 nM
IC50 (Lck): 31 ± 0.3 nM
inhibition at 10 µM [3]: 7.34%
IC50 (Flt-4): 8.7 ± 0.6 nM
IC50 (ErbB2): 16 ± 3 nM
ED50 ([4]; HT-29, qd × 14): 20.2 mg/kg
ED50 ([4]; HT-29, qd × 28): 16 mg/kg
